Like-named read-outs stand apart in the source and are kept apart here.

The target in experiment [1] is KRAS G12D (Homo sapiens (Human), UniProt P01116, G12D). Put plainly: KRAS G12D LoEnz Biochemical Assay, BODIPY-GDP Exchange TR-FRET (SOS1-mediated nucleotide exchange). Conditions: read-out: KRas (G12D) GDP HTRF IC50.
The target of experiment [2] is KRAS WT (Homo sapiens (Human), UniProt P01116). Description: KRAS WT Biochemical Assay, BODIPY-GDP Exchange TR-FRET (Example 501; 3 nM KRAS WT, 3 nM SOS1, 60-minute incubation). The essentials: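 SOS1-mediated exchange assay: 3 nM biotin-KRAS WT with terbium-streptavidin, started with 3 nM SOS1 and 300 nM BODIPY-GDP, HEPES pH 7.5 with MgCl2. TR-FRET (520/490 nm) read after 60 min; normalized to DMSO and full-inhibition control, IC50 from 4-parameter Hill fit.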
KRAS WT, sequence (P01116-2 other isoform, or with tags, fused parts or gaps): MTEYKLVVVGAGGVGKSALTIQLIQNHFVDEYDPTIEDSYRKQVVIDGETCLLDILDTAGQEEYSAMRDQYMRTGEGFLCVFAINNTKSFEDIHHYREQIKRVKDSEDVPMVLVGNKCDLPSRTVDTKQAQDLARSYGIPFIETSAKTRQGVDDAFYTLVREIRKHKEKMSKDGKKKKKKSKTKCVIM

Setting [3] is: read-out: KRas(wt) GDP HTRF IC50.

KRAS G12D, sequence (P01116-2 other isoform, or with tags, fused parts or gaps G12D): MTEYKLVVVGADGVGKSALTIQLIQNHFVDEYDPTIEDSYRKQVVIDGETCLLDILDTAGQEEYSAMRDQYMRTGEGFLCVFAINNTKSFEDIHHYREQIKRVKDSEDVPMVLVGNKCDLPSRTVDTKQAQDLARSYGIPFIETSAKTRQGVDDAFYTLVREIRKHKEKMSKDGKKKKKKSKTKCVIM

Take `C[C@@H]1Oc2nc(-c3cc(N)cc4c3CC4)c(F)c3nc(OC[C@@]45CCCN4C[C@H](F)C5)nc(c23)N2C[C@H]3CC[C@H](N3)[C@@H]12` [Compound 201, 5-((5S,5aS,6S,9R)-1-Fluoro-12-(((2R,7aS)-2-fluorotetrahydro-1H-pyrrolizin-7a(5H)-yl)methoxy)-5-methyl-5a,6,7,8,9,10-hexahydro-5H-4-oxa-3,10a,11,13,14-pentaaza-6,9-methanonaphtho[1,8-ab]heptalen-2-yl)bicyclo[4.2.0]octa-1(6),2,4-trien-3-amine]: the IC50 was 9.19 nM in experiment [1] and 1620 nM in experiment [2] (read-out: KRas HTRF IC50).

Turning to `Cc1nc(N)cc(-c2nc3c4c(nc(OCC5(CN6CC7CC(C6)O7)CC5)nc4c2F)N2C[C@H]4CC[C@H](N4)[C@H]2[C@H](C)O3)c1C(F)(F)F` [Compound 265, 4-((5S,5aS,6S,9R)-12-((1-((6-oxa-3-azabicyclo[3.1.1]heptan-3-yl)methyl)cyclopropyl)methoxy)-1-fluoro-5-methyl-5a,6,7,8,9,10-hexahydro-5H-4-oxa-3,10a,11,13,14-pentaaza-6,9-methanonaphtho[1,8-ab]heptalene-2-yl)-6-methyl-5-(trifluoromethyl)pyridin-2-amine], the IC50 in experiment [1] was 0.28 nM; in experiment [2] (read-out: KRas HTRF IC50), 14.1 nM.

As for `Cc1c(F)c(N)cc(-c2nc3c4c(nc(OC[C@@]56CCCN5C[C@H](F)C6)nc4c2F)N2C[C@H]4CC[C@H](NC4)[C@H]2CO3)c1C(F)(F)F` [Compound 236, 2-Fluoro-5-((5aS,6S,9S)-1-fluoro-12-(((2R,7aS)-2-fluorotetrahydro-1H-pyrrolizin-7a(5H)-yl)methoxy)-5a,6,7,8,9,10-hexahydro-5H-4-oxa-3,10a,11,13,15-pentaaza-6,9-ethanonaphtho[1,8-ab]heptalene-2-yl)-3-methyl-4-(trifluoromethyl)aniline], the IC50 in experiment [1] was determined as 68 nM; in experiment [2] (read-out: KRas HTRF IC50), 830 nM.

`Cc1nc(N)cc(-c2nc3c4c(nc(OCC5(CN6CC7COCC7C6)CC5)nc4c2F)N2C[C@H]4CC[C@H](N4)[C@H]2[C@H](C)O3)c1C(F)(F)F` (stereo partly drawn) [Compound 205, 4-((5S,5aS,6S,9R)-1-Fluoro-5-methyl-12-((1-((tetrahydro-1H-furo[3,4-c]pyrrol-5(3H)-yl)methyl)cyclopropyl)methoxy)-5a,6,7,8,9,10-hexahydro-5H-4-oxa-3,10a,11,13,14-pentaaza-6,9-methanonaphtho[1,8-ab]heptalen-2-yl)-6-methyl-5-(trifluoromethyl)pyridin-2-amine]: the IC50 in experiment [1] is 3.39 nM; in experiment [2] (read-out: KRas HTRF IC50) it was 8.61 nM.

Take `C[C@@H]1Oc2nc(-c3cccc(N)c3F)c(F)c3nc(OC[C@@]45CCCN4C[C@H](F)C5)nc(c23)N2C[C@H]3CC[C@H](N3)[C@@H]12` [Compound 12, 2-fluoro-3-((5S,5aS,6S,9R)-1-fluoro-12-(((2R,7aS)-2-fluorotetrahydro-1H-pyrrolizin-7a(5H)-yl)methoxy)-5-methyl-5a,6,7,8,9,10-hexahydro-5H-4-oxa-3,10a,11,13,14-pentaaza-6,9-methanonaphtho[1,8-ab]heptalen-2-yl)aniline]: the IC50 turned out to be 379 nM in experiment [1] and 37400 nM in experiment [2] (setting [3]).

For the compound `C[C@@H]1Oc2nc(-c3cccc4cccc(Cl)c34)c(F)c3nc(OC[C@@]45CCCN4CC4(CC4(F)F)C5)nc(c23)N2C[C@H]3CC[C@H](N3)[C@@H]12` (stereo partly drawn) [Compound 27, (5S,5aS,6S,9R)-2-(8-chloronaphthalen-1-yl)-12-(((7a′S)-2,2-difluorodihydro-1′H,3′H-spiro[cyclopropane-1,2′-pyrrolizin]-7a′(5′H)-yl)methoxy)-1-fluoro-5-methyl-5a,6,7,8,9,10-hexahydro-5H-4-oxa-3,10a,11,13,14-pentaaza-6,9-methanonaphtho[1,8-ab]heptalene], the IC50 in experiment [1] was determined as 0.72 nM; in experiment [2] (setting [3]), 65.2 nM.

With `Cc1nc(N)cc(-c2nc3c4c(nc(OCC5(CN6CC7CC(F)(F)C7C6)CC5)nc4c2F)N2C[C@H]4CC[C@H](N4)[C@H]2[C@H](C)O3)c1C(F)(F)F` (mixture of isomers) [Compound 264, 4-((5S,5aS,6S,9R)-12-((1-((6,6-difluoro-3-azabicyclo[3.2.0]heptan-3-yl)methyl)cyclopropyl)methoxy)-1-fluoro-5-methyl-5a,6,7,8,9,10-hexahydro-5H-4-oxa-3,10a,11,13,14-pentaaza-6,9-methanonaphtho[1,8-ab]heptalene-2-yl)-6-methyl-5-(trifluoromethyl)pyridin-2-amine], the IC50 in experiment [1] is 0.33 nM; in experiment [2] (read-out: KRas HTRF IC50), 19.2 nM.

On to `C#Cc1cccc2cc(O)cc(-c3nc4c5c(nc(OC[C@@]67CCCN6C[C@H](F)C7)nc5c3F)N3C[C@H]5CC[C@H](CN5CC5COC5)[C@H]3CO4)c12` [Compound 51, 5-ethynyl-4-((5aS,6R,9R)-1-fluoro-12-(((2R,7aS)-2-fluorotetrahydro-1H-pyrrolizin-7a(5H)-yl)methoxy)-14-(oxetan-3-ylmethyl)-5a,6,7,8,9,10-hexahydro-5H-4-oxa-3,10a,11,13,14-pentaaza-6,9-ethanonaphtho[1,8-ab]heptalen-2-yl)naphthalen-2-ol], for which the IC50 in experiment [1] worked out at 0.3 nM; in experiment [2] (setting [3]) it was 5.6 nM.

In the case of `Cc1nc(N)cc(-c2nc3c4c(nc(OCC5(CN6CCC(C(F)F)C6)CC5)nc4c2F)N2C[C@H]4CC[C@H](N4)[C@H]2[C@H](C)O3)c1C(F)(F)F` (stereo partly drawn) [Compound 276, 4-((5S,5aS,6S,9R)-12-((1-((3-(difluoromethyl)pyrrolidin-1-yl)methyl)cyclopropyl)methoxy)-1-fluoro-5-methyl-5a,6,7,8,9,10-hexahydro-5H-4-oxa-3,10a,11,13,14-pentaaza-6,9-methanonaphtho[1,8-ab]heptalen-2-yl)-6-methyl-5-(trifluoromethyl)pyridin-2-amine], the IC50 in experiment [1] is 0.26 nM; in experiment [2] (read-out: KRas HTRF IC50), 8.91 nM.

For `Cc1nc(N)cc(-c2nc3c4c(nc(OCC5(CN6CC7CCC(C6)O7)CC5)nc4c2F)N2C[C@H]4CC[C@H](N4)[C@H]2[C@H](C)O3)c1C(F)(F)F` [Compound 207, 4-((5S,5aS,6S,9R)-12-((1-((8-oxa-3-azabicyclo[3.2.1]octan-3-yl)methyl)cyclopropyl)methoxy)-1-fluoro-5-methyl-5a,6,7,8,9,10-hexahydro-5H-4-oxa-3,10a,11,13,14-pentaaza-6,9-methanonaphtho[1,8-ab]heptalene-2-yl)-6-methyl-5-(trifluoromethyl)pyridin-2-amine], the IC50 in experiment [1] turned out to be 0.36 nM; in experiment [2] (read-out: KRas HTRF IC50), 43.1 nM.

`Cc1cc(N)c(F)c(-c2nc3c4c(nc(OC[C@@]56CCCN5CC5(CC5(F)F)C6)nc4c2F)N2C[C@H]4CC[C@H](N4)[C@H]2[C@H](C)O3)c1C(F)(F)F` (stereo partly drawn) [Compound 227, 3-((5S,5aS,6S,9R)-12-(((7a′S)-2,2-Difluorodihydro-1′H,3′H-spiro[cyclopropane-1,2′-pyrrolizin]-7a′(5′H)-yl)methoxy)-1-fluoro-5-methyl-5a,6,7,8,9,10-hexahydro-5H-4-oxa-3,10a,11,13,14-pentaaza[6,9]methanonaphtho[1,8-ab]heptalene-2-yl)-2-fluoro-5-methyl-4-(trifluoromethyl)aniline]: the IC50 worked out at 0.21 nM in experiment [1] and 0.938 nM in experiment [2] (read-out: KRas HTRF IC50).

For the compound `C[C@@H]1Oc2nc(N(C)c3ccc(F)c(N)c3)c(F)c3nc(OC[C@@]45CCCN4C[C@H](F)C5)nc(c23)N2C[C@H]3CC[C@H](N3)[C@@H]12` [Compound 193, 4-fluoro-Ni-((5S,5aS,6S,9R)-1-fluoro-12-(((2R,7aS)-2-fluorotetrahydro-1H-pyrrolizin-7a(5H)-yl)methoxy)-5-methyl-5a,6,7,8,9,10-hexahydro-5H-4-oxa-3,10a,11,13,14-pentaaza-6,9-methanonaphtho[1,8-ab]heptalen-2-yl)-Ni-methylbenzene-1,3-diamine], the IC50 in experiment [1] amounted to 32800 nM; in experiment [2] (read-out: KRas HTRF IC50) it was 128000 nM.

Turning to `Cc1nc(N)cc(-c2nc3c4c(nc(OC[C@@]56CCCN5C[C@H](F)C6)nc4c2F)N2C[C@H]4CC[C@H](N4)[C@H]2[C@H](C)O3)c1CC(F)(F)F` [Compound 185, 4-((5S,5aS,6S,9R)-1-Fluoro-12-(((2R,7aS)-2-fluorotetrahydro-1H-pyrrolizin-7a(5H)-yl)methoxy)-5-methyl-5a,6,7,8,9,10-hexahydro-5H-4-oxa-3,10a,11,13,14-pentaaza-6,9-methanonaphtho[1,8-ab]heptalene-2-yl)-6-methyl-5-(2,2,2-trifluoromethyl)pyridin-2-amine], the IC50 in experiment [1] was found to be 1.1 nM; in experiment [2] (read-out: KRas HTRF IC50), 107 nM.

In the case of `Cc1nc(N)cc(-c2nc3c4c(nc(OCC5(CN6C[C@@H]7C[C@H]6CO7)CC5)nc4c2F)N2C[C@H]4CC[C@H](N4)[C@H]2[C@H](C)O3)c1C(F)(F)F` [Compound 208, 4-((5S,5aS,6S,9R)-12-((1-(((1S,4S)-2-Oxa-5-azabicyclo[2.2.1]heptan-5-yl)methyl)cyclopropyl)methoxy)-1-fluoro-5-methyl-5a,6,7,8,9,10-hexahydro-5H-4-oxa-3,10a,11,13,14-pentaaza-6,9-methanonaphtho[1,8-ab]heptalene-2-yl)-6-methyl-5-(trifluoromethyl)pyridin-2-amine], the IC50 in experiment [1] is 0.31 nM; in experiment [2] (read-out: KRas HTRF IC50), 24.7 nM.

As for `Cc1nc(N)cc(-c2nc3c4c(nc(OCC5(CN6C[C@H](F)C[C@H](F)C6)CC5)nc4c2F)N2C[C@H]4CC[C@H](N4)[C@H]2[C@H](C)O3)c1C(F)(F)F` [Compound 269, 4-((5S,5aS,6S,9R)-12-((1-(((3S,5R)-3,5-difluoropiperidin-1-yl)methyl)cyclopropyl)methoxy)-1-fluoro-5-methyl-5a,6,7,8,9,10-hexahydro-5H-4-oxa-3,10a,11,13,14-pentaaza-6,9-methanonaphtho[1,8-ab]heptalene-2-yl)-6-methyl-5-(trifluoromethyl)pyridin-2-amine], the IC50 in experiment [1] came out at 0.42 nM; in experiment [2] (read-out: KRas HTRF IC50), 105 nM.
